Data reported in ChEMBL document CHEMBL1146550, “Sesquiterpenoid derivatives from Gonospermum elegans and their cytotoxic activity for HL-60 human promyelocytic cells” (J Nat Prod, 2003).
Activity calls are given as the source filed them. The rule behind the calls is not given here.

Columns and labels:
[1] = tested on: HL-60; assay: Antiproliferative activity against human HL60 cells after 24 hrs by MTT assay; type: functional, cell-based; details: for IC50: HL-60, 24 h
[2] = tested on: HL-60; assay: Induction of apoptosis in human HL60 cells assessed as apoptotic cells after 12 hrs by Hoechst staining-based fluorescence microscopy; type: functional, cell-based
[3] = tested on: HL-60; assay: Induction of apoptosis in human HL60 cells assessed as apoptotic cells at 1 uM after 12 hrs by Hoechst staining-based fluorescence microscopy; type: functional
[4] = tested on: HL-60; assay: Induction of apoptosis in human HL60 cells assessed as peripheral nuclear chromatin condensation at 0.1 to 3 uM after 12 hrs by Hoechst staining-based fluorescence microscopy; type: functional, cell-based
[5] = tested on: HL-60; assay: Induction of apoptosis in human HL60 cells assessed as PARP cleavage at 0.1 to 1 uM after 8 hrs by SDS-PAGE; type: functional, cell-based
[6] = tested on: HL-60; assay: Induction of apoptosis in human HL60 cells assessed as PARP cleavage at 0.1 to 1 uM after 12 hrs by SDS-PAGE; type: functional, cell-based
[7] = tested on: HL-60; assay: Induction of apoptosis in human HL60 cells assessed as […] DNA fragmentation at 1 uM after 12 hrs by agarose gel electrophoresis; type: functional, cell-based
[8] = tested on: HL-60; assay: Induction of apoptosis in human HL60 cells assessed as apoptotic cells at 10 uM after 12 hrs by Hoechst staining-based fluorescence microscopy; type: functional
[9] = tested on: HL-60; assay: Induction of apoptosis in human HL60 cells assessed as PARP cleavage at 1 to 10 uM after 8 hrs by SDS-PAGE; type: functional, cell-based
[10] = tested on: HL-60; assay: Induction of apoptosis in human HL60 cells assessed as PARP cleavage at 1 to 10 uM after 12 hrs by SDS-PAGE; type: functional, cell-based
[11] = tested on: HL-60; assay: Induction of apoptosis in human HL60 cells assessed as […] DNA fragmentation at 10 uM after 12 hrs by agarose gel electrophoresis; type: functional, cell-based

Row | SMILES | IC50 [1] | Activity [1] | Activity [2] | Activity [3] | Activity [4] | Activity [5] | Activity [6] | Activity [7] | Activity [8] | Activity [9] | Activity [10] | Activity [11]
1 | C=C1C(=O)O[C@H]2C[C@@]3(C)[C@H](C(=C)CC[C@@H]3O)[C@@H](O)[C@H]12 [ELEGALACTONE A] | 55.1 µM |  |  |  |  |  |  |  |  |  |  | 
2 | C=C1CC[C@H](OC(C)=O)/C(C)=C\[C@@H]2OC(=O)C(=C)[C@H]2[C@H](OC(C)=O)C1=O | 0.25 µM | Dose-dependent effect | Dose-dependent effect | 25.9% | Active | Active | Active | Active |  |  |  | 
3 | C=C1C(=O)O[C@H]2C[C@]3(C)[C@@H](OC(C)=O)CCC(=C)[C@@H]3[C@@H](OC(C)=O)[C@H]12 | 5.3 µM | Dose-dependent effect | Dose-dependent effect |  |  |  |  |  | 14.3% | Active | Active | Active
